Measurements: patent US20070077283A1, “METHOD OF ENHANCING TRANSMUCOSAL DELIVERY OF THERAPEUTIC COMPOUNDS” (Nastech Pharmaceutical Company Inc., priority 2005, published 2007)

Tests used:
[1] = tested on: human-derived tracheal/bronchial epithelial cells (EpiAirway Tissue Model); assay: in vitro
Protocol: Normal, human-derived tracheal/bronchial epithelial cells will serve as the model cell system for assessing the lipids listed in Table 1. The cells are supplied by MatTek Corp. (Ashland, Mass.) as the EpiAirway™ Tissue Model. The cells are provided as a confluent monolayer on a Millipore Milicell-CM cell culture insert with a pore size of 0.4 μM, inner diameter of 0.8 cm and surface area of 0.6 cm^2 and comprised of transparent hydrophilic Teflon (PTFE). Upon receipt, the membranes are cultured in 1 ml basal media (phenol red-free and hydrocortisone-free Dulbecco's Modified Eagle's Media (DMEM) at 37° C./5% CO2 for 24-48 hours before use. Inserts are feed for each day of recovery.
The amount of cell death was assayed by measuring the loss of lactate dehydrogenase (LDH) from the cells using a CytoTox 96 Cytotoxicity Assay Kit (Promega Corp., Madison, Wis.). A treatment of 1% Octylphenolpoly(ethyleneglycolether)x (Triton X-100™) diluted in PBS was used as a lysis control. One percent Triton X-100™ mediated cell lysis was normalized to 100%. For basal-lateral LDH levels, triplicates of 50 μl of the basal media were loaded into a 96-well assay plate. For apical LDH levels, 150 μl of Epi-Cm was added to the apical side of each chamber and mixed by pipeting. One hundred and fifty microliters was then removed and diluted 2-fold prior to performing the LDH assay. All apical LDH assay were performed in triplicate and with 50 μl of the diluted test solution. Fresh, cell-free culture medium will be used as a blank. Total LDH levels were determined by lysing cells in a final concentration of 0.9% Triton-X100™. Fifty microliters of substrate solution was added to each well and the plates incubated for 30 minutes at room temperature in the dark. Following incubation, 50 μl of stop solution was added to each well and the plates read on an optical density plate reader at […]. Cytotoxicity was expressed as a percentage calculated by subtracting the average absorbance of the PBS control wells as the endogenously released LDH level and expressing that value relative to the average Triton-X100 control, which represents total LDH content. [formula] Osmolality
For the instant application, phosphate buffered saline (PBS) served as a negative control for both the TER assay and LDH (cytotoxicity) assay. […] TER measurements and LDH levels were taken immediately after a one hour treatment of the cultured cells with each lipid, unless specified otherwrise.
TER reduction was expressed as the percent decrease in TER value from time zero to one hour post-treatment. Thus, greater percent reduction in TER represents less electrical resistance across the epithelial cell monolayer and consequently greater epithelial cell permeation. Cytotoxicity (LDH levels) for each lipid was expressed as a percent of the LDH levels measured after Triton-X100 treatment of the cells. Triton-X100™ LDH levels were normalized to 100%.

[2] = tested on: human-derived tracheal/bronchial epithelial cells (EpiAirway Tissue Model); assay: FITC-Dextran permeation assay across epithelial cell monolayer; assay type: cell-based; details: for Mean % FD3 Permeation: FITC-dextran 3000 (Table 4); for % FITC-Dextran Permeation FD3: lipid 1000 μM (Table 5); for permeation of FD3 relative to negative controls: text summary of Table 4
Protocol: Each tissue insert was placed in an individual well containing 1 ml of MatTek basal media. On the apical surface of the inserts, 20 μl of test formulation was applied according to study design, and the samples were placed on a shaker (˜100 rpm) for 1.5 hours at 37° C. FITC-labeled dextran solution was added to inserts apically and a fluorescence measurement was taken from the basolateral media after the incubation period. Two hundred microliters of the basal media for each test formulation was transferred to a dark-wall fluorescent reading plate. Each test formulation was tested in triplicate. Fluorescent intensity was measured at 470 nM with the microplate fluorescence reader FLx800 (Bio-Tek Instruments, Inc., Winooski, Vt.). A FITC labeled dextran with a molecular weight of 3 kDA, 10 kDA, 20 kDA, 40 kDA, 70 kDA and/or 500 kDA was used to assess the ability of individual lipids to deliver a model protein across an epithelia.
Permeation is expressed as percent permeation and was calculated as follows: [formula] [formula] Terms
PBS and 0.3% Triton-X100™ served as […]. […] FD permeation was presented as the percent of FD that crossed from the apical side of the epithelial cell monolayer to the basolateral cell surface.

[3] = tested on: human-derived tracheal/bronchial epithelial cells (EpiAirway Tissue Model); assay: Transepithelial electrical resistance (TER) of an epithelial cell monolayer; assay type: cell-based; details: for activity at 1000 µM: Homo sapiens, Epithelial cell, 1 h, read-out: Mean % of Original TER Value
Protocol: Inserts are feed for each day of recovery. TER measurements were accomplished using the Endohm-12 Tissue Resistance Measurement Chamber connected to the EVOM Epithelial Voltohmmeter (World Precision Instruments, Sarasota, Fla.) with the electrode leads. The electrodes and a tissue culture blank insert were equilibrated for at least 20 minutes in MatTek medium with the power off prior to checking calibration. The background resistance was measured with 1.5 ml media in the Endohm tissue chamber and 300 μl media in the blank insert. The top electrode was adjusted so that it was close to, but not making contact with, the top surface of the insert membrane. Background resistance of the blank insert was about 5-20 ohms. […] TER values are a function of the surface area of the tissue. […] By this method of calculation, TER will be expressed as both Ohms*cm2 and percent original TER value. […] Several different lipid types (see Table 1) were screened to select for lipids that are capable of enhancing the permeation of a biological agent across an epithelial cell monolayer. […] A reduction in TER correlates with the ability to enhance the permeation of a molecule and biological agent across an epithelia.

[4] = lipid 1000 μM, lower value = greater TER reduction (Table 4)
[5] = lipid 1000 μM, percent of Triton-X100 LDH levels
[6] = lipid 1000 μM, percent decrease in TER from time zero
[7] = lipid 125 μM, percent of Triton-X100 LDH levels
[8] = lipid 250 μM, percent of Triton-X100 LDH levels
[9] = lipid 500 μM, percent of Triton-X100 LDH levels
[10] = positive controls, concentration N/A (Special Sauce; 0.3% Triton-X100)
[11] = positive controls: Special Sauce 1X, 1% Triton (Table 4)

Compound: CC/C=C\C/C=C\C/C=C\C/C=C\C/C=C\C/C=C\CCC(=O)O[C@H](COCCCCCCCCCCCCCCCC)COP(=O)([O-])OCC[N+](C)(C)C [C16-22:6 PC, 1-O-Hexadecyl-2-Docosahexaenoyl-sn-Glycero-3-Phosphocholine]
- Mean % Relative Cytotoxic Effect (LDH) ([1]; lipid 1000 μM (Table 4)): −1%
- Mean % FD3 Permeation ([2]; lipid 1000 μM): 0%
- Mean % of Original TER Value [3, 4]: 97%

Compound: CCCCCCCCCCCCC/C=C/[C@@H](O)[C@@H](N)CO[C@@H]1O[C@H](CO)[C@@H](O[C@@H]2O[C@H](CO)[C@H](O)[C@H](O)[C@H]2O)[C@H](O)[C@H]1O [Lactosyl(β) Sphingosine, D-Lactosyl-β1-1′-D-erythro-Sphingosine]
- Cytotoxic Effect (LDH) 1 hr. Post-treatments [1, 5]: 14%
- % FITC-Dextran Permeation FD10 ([2]; lipid 1000 μM): 5%
- % FITC-Dextran Permeation FD40 ([2]; lipid 1000 μM): 2%
- % FITC-Dextran Permeation FD3 [2]: 8%
- Mean TER Reduction 1 hr. Post-treatment [3, 6]: 95%

Compound: CCCCCCCCCCCCC/C=C/[C@@H](O)[C@@H](N)CO[C@@H]1O[C@H](CO)[C@H](O)[C@H](O)[C@H]1O [Galactosyl sphingosine, D-Galactosyl-β1-1′-D-erythro-Sphingosine]
- Cytotoxic Effect (LDH) 1 hr. Post-treatments [1, 7]: 2%
- Cytotoxic Effect (LDH) 1 hr. Post-treatments [1, 8]: 3%
- Cytotoxic Effect (LDH) 1 hr. Post-treatments [1, 9]: 2%
- Cytotoxic Effect (LDH) 1 hr. Post-treatments [1, 5]: 26%
- Mean TER Reduction 1 hr. Post-treatment ([3]; lipid 125 μM): 36%
- Mean TER Reduction 1 hr. Post-treatment ([3]; lipid 250 μM): 43%
- Mean TER Reduction 1 hr. Post-treatment ([3]; lipid 500 μM): 42%
- Mean TER Reduction 1 hr. Post-treatment [3, 6]: 91%

Compound: Octylphenolpoly(ethyleneglycolether)x [Triton-X100, reference compound]
- % Relative Cytotoxic Effect (LDH) ([1]; in the presence of FITC-Dextran FD3 (Table 6)): 99%
- Cytotoxic Effect (LDH) 1 hr. Post-treatments [1, 10]: 100%
- Mean % Relative Cytotoxic Effect (LDH) [1, 11]: 100%
- % Cytotoxicity ([1]; treatment alone, no lipid, apical LDH release (Table 8), Triton 0.3%): 100%
- % of the original TER value ([3]; controls of the further test of lipids at 250 μM to 1000 μM (b219-b220)): −6%
- Mean TER Reduction 1 hr. Post-treatment [3, 10]: 100%
- Mean % of Original TER Value [3, 11]: −7%

Compound: CC/C=C\C/C=C\C/C=C\C/C=C\C/C=C\CCCC(=O)O[C@H](COCCCCCCCCCCCCCCCC)COP(=O)([O-])OCC[N+](C)(C)C [C16-20:5 PC, 1-O-Hexadecyl-2-Eicosapentaenoyl-sn-Glycero-3-Phosphocholine]
- Mean % Relative Cytotoxic Effect (LDH) ([1]; lipid 1000 μM (Table 4)): −1%
- Mean % FD3 Permeation ([2]; lipid 1000 μM): 0%
- Mean % of Original TER Value [3, 4]: 90%

Compound: 1,3-Di(3-sn-Phosphatidyl)-sn-Glycerol Disodium Salt [Cardiolipin (sodium salt)]
- Cytotoxic Effect (LDH) 1 hr. Post-treatments [1, 5]: 21%
- Mean TER Reduction 1 hr. Post-treatment [3, 6]: 32%

Compound: CCCCCCCCCCCCCCCCOC[C@H](COP(=O)(O)OCC[N+](C)(C)C)OC [2-O-Methyl-PAF, 1-O-Hexadecyl-2-O-Methyl-sn-Glycero-3-Phosphorylcholine]
- Mean % Relative Cytotoxic Effect (LDH) ([1]; lipid 500 μM (Table 4)): 18%
- Mean % Relative Cytotoxic Effect (LDH) ([1]; lipid 1000 μM (Table 4)): 20%
- Mean % FD3 Permeation ([2]; lipid 500 μM): 7%
- Mean % FD3 Permeation ([2]; lipid 1000 μM): 16%
- permeation of FD3 relative to negative controls [2]: enhanced the permeation of FD3 above that of the negative controls
- Mean % of Original TER Value ([3]; lipid 500 μM (Table 4)): 8%
- Mean % of Original TER Value [3, 4]: 2%

Compound: 1-Alkyl-2-Acetoyl-sn-Glycero-3-Phosphocholine [Platelet-Activation Factor]
- Cytotoxic Effect (LDH) 1 hr. Post-treatments [1, 5]: 19%
- Mean TER Reduction 1 hr. Post-treatment [3, 6]: 35%

Compound: CCCCCCCCCCCCCCCCOC[C@H](COP(=O)(O)OCC[N+](C)(C)C)OCC [2-O-Ethyl-PAF, 1-O-Hexadecyl-2-O-Ethyl-sn-Glycero-3-Phosphorylcholine]
- Mean % Relative Cytotoxic Effect (LDH) ([1]; lipid 500 μM (Table 4)): 1%
- Mean % Relative Cytotoxic Effect (LDH) ([1]; lipid 1000 μM (Table 4)): 2%
- Mean % FD3 Permeation ([2]; lipid 500 μM): 1%
- Mean % FD3 Permeation ([2]; lipid 1000 μM): 2%
- permeation of FD3 relative to negative controls [2]: enhanced the permeation of FD3 above that of the negative controls
- Mean % of Original TER Value ([3]; lipid 500 μM (Table 4)): 112%
- Mean % of Original TER Value [3, 4]: 70%

Compound: CCCCCCCCCCCCCCCCOC[C@@H](O)COP(=O)([O-])OCC[N+](C)(C)C [C16 Lyso-PAF, 1-O-Hexadecyl-2-Hydroxy-sn-Glycero-3-Phosphocholine]
- Mean % Relative Cytotoxic Effect (LDH) ([1]; lipid 1000 μM (Table 4)): 26%
- % FITC-Dextran Permeation FD10 ([2]; lipid 1000 μM): 6%
- % FITC-Dextran Permeation FD40 ([2]; lipid 1000 μM): 2%
- % FITC-Dextran Permeation FD3 [2]: 8%
- Mean % FD3 Permeation ([2]; lipid 1000 μM): 6%
- permeation of FD3 relative to negative controls [2]: enhanced the permeation of FD3 above that of the negative controls
- activity at 1000 µM [3, 4]: 14%

Compound: CCCCCCCC/C=C\CCCCCCCC(=O)O[C@H](COCCCCCCCCCCCCCCCC)COP(=O)([O-])OCC[N+](C)(C)C [C16-18:1 PC, 1-O-Hexadecyl-2-Oleoyl-sn-Glycero-3-Phosphocholine]
- Mean % Relative Cytotoxic Effect (LDH) ([1]; human, 1 h, 1000 μM): −2%
- Mean % FD3 Permeation ([2]; lipid 1000 μM): 0%
- activity at 1000 µM [3, 4]: 86%

Compound: CCCCCCCCCCCCCCCC(=O)OC[C@H](COP(=O)([O-])OCC[N+](C)(C)C)OC(C)=O [16:0-02:0 PC, 1-Palmitoyl-2-Acetoyl-sn-Glycero-3-Phosphocholine]
- Mean % Relative Cytotoxic Effect (LDH) ([1]; lipid 1000 μM (Table 4)): 23%
- Mean % FD3 Permeation ([2]; lipid 1000 μM): 8%
- activity at 1000 µM [3, 4]: 25%

Compound: 1-Alkyl-2-Hydroxy-sn-Glycero-3-Phosphocholine [Lyso-Platelet-Activation Factor]
- Cytotoxic Effect (LDH) 1 hr. Post-treatments ([1]; lipid 62.5 μM, percent of Triton-X100 LDH levels): 2%
- Cytotoxic Effect (LDH) 1 hr. Post-treatments [1, 7]: 3%
- Cytotoxic Effect (LDH) 1 hr. Post-treatments [1, 8]: 6%
- Cytotoxic Effect (LDH) 1 hr. Post-treatments [1, 9]: 22%
- Cytotoxic Effect (LDH) 1 hr. Post-treatments [1, 5]: 34%
- Mean TER Reduction 1 hr. Post-treatment ([3]; lipid 62.5 μM): 48%
- Mean TER Reduction 1 hr. Post-treatment ([3]; lipid 125 μM): 23%
- Mean TER Reduction 1 hr. Post-treatment ([3]; lipid 250 μM): 29%
- Mean TER Reduction 1 hr. Post-treatment ([3]; lipid 500 μM): 61%
- Mean TER Reduction 1 hr. Post-treatment [3, 6]: 84%

Compound: CCCCCCCCCCCCC/C=C/[C@@H](O)[C@H](COP(=O)(O)O)NC(C)=O.N [N-acetoyl ceramide-1-phosphate, (2S,3R,4E)-2-Acetoylaminooctadec-4-Ene-1,3-Diol-1-Phosphate (Ammonium Salt)]
- Cytotoxic Effect (LDH) 1 hr. Post-treatments [1, 7]: 2%
- Cytotoxic Effect (LDH) 1 hr. Post-treatments [1, 8]: 2%
- Cytotoxic Effect (LDH) 1 hr. Post-treatments [1, 9]: 2%
- Cytotoxic Effect (LDH) 1 hr. Post-treatments [1, 5]: 2%
- Mean TER Reduction 1 hr. Post-treatment ([3]; lipid 125 μM): 24%
- Mean TER Reduction 1 hr. Post-treatment ([3]; lipid 250 μM): 23%
- Mean TER Reduction 1 hr. Post-treatment ([3]; lipid 500 μM): 29%
- Mean TER Reduction 1 hr. Post-treatment [3, 6]: 42%
